Source: patent US12214021B2 (CHINA AGRICULTURAL UNIVERSITY, priority 2018, dated 2025)

Experiments:
VDR = assay: effect of p38 and TGF-β/Smads pathway inhibitors on VDR expression promoted by LF; format: cell-based; settings: for effect of inhibitor on the expression of VDR promoted by LF in the cytoplasm: FIG. 17A; for effect of inhibitor on the expression of VDR promoted by LF in nucleus: FIG. 17B
Method: In order to verify the mechanism of LF for promoting the high expression of VDR, firstly, inhibitors were used in the cytoplasm to inhibit the extracellular signaling pathway to detect the promotion effect of LF on VDR. The p38 inhibitor SB203580 and the TGF-β/smads pathway inhibitor SB431542 were added to detect the expression of VDR promoted by LF.
Since VDR mainly functions in the nucleus, after inhibiting the pathway using SB203580 and SB431542 inhibitors, the expression of VDR promoted by LF in nucleus was detected.

osteoblasts = assay: proliferation of osteoblasts promoted by LF (MTT method); format: cell-based; settings: 1 nM together with LF, FIG. 4
Method: Based on transcriptome data, the inventors verified that LF can promote the high expression of VDR at both the gene and protein levels. In order to confirm the role of this pathway in the promotion of osteoblast proliferation and differentiation by LF, the inventors first designed a VDR siRNA to achieve the purpose of transiently silencing VDR genes. The principle of siRNA is the post-transcriptional gene silencing mechanism that blocks the expression of corresponding gene. 20 μM VDR siRNA was added to osteoblasts, the proliferation rate of osteoblasts promoted by LF was detected by MTT method, and the ALP activity of osteoblasts promoted by LF was detected by enzyme-linked immunoassay.
The inventors first confirmed that LF promotes the proliferation and differentiation of osteoblasts through the regulation of the VDR pathway using the osteoblast model. Since the osteogenic effect of VDR is mainly achieved by vitamin D, in order to simulate the normal physiological environment, the inventors treated osteoblasts with both 1 nM of […] (the active form of vitamin D) and LF, and then studied the proliferation and differentiation of osteoblasts.

Compound	effect of inhibitor on the expression of VDR promoted by LF in the cytoplasm (VDR)	effect of inhibitor on the expression of VDR promoted by LF in nucleus (VDR)	effect of the presence of 1.25(OH)2D3 on the osteogenic activity of LF (osteoblasts)
C[S+]([O-])c1ccc(-c2nc(-c3ccncc3)c(-c3ccc(F)cc3)[nH]2)cc1 (centres unmarked) [SB203580]	no significant effect	no significant effect	–
NC(=O)c1ccc(-c2nc(-c3ccc4c(c3)OCO4)c(-c3ccccn3)[nH]2)cc1 [SB431542]	no significant effect	no significant effect	–
C=C1/C(=C\C=C2/CCC[C@]3(C)[C@@H]([C@H](C)CCCC(C)(C)O)CC[C@@H]23)C[C@@H](O)C[C@@H]1O [1.25(OH)2D3, reference compound]	–	–	does not affect
